This passage reports absorption maximum results from the Deep4Chem optical property database.

This series is described as follows: solvent given as SMILES.

“And” between values parts separate entries of the source, which are not always exact repeats. Identical values can stand only once.

Molecule `CCN(CC)c1ccc2c(-c3ccccc3C(=O)O)c3c([o+]c2c1)/C(=C/C=C/c1ccc(N(C)C)cc1)CCC3` showed an absorption maximum (in ClCCl) of 749 nm.

Consider `COc1ccc(C2=[N+]3C(=Nc4c5c6cc(OC)c(OC)c(OC)c6c6cc(C(C)(C)C)ccc6c5c(-c5ccc(OC)cc5)n4[B-]3(F)F)c3c2c2ccc(C(C)(C)C)cc2c2c(OC)c(OC)c(OC)cc32)cc1`, for which, where the note is “in Cc1ccccc1”, the absorption maximum is given as 745 nm.

Molecule `F[B-]1(F)n2c(c3ccccc3c2-c2ccccc2)C(c2ccccc2)=C2c3ccccc3C(c3ccccc3)=[N+]21` showed an absorption maximum (in ClCCl) of 631 nm.

Where the note is “in ClC(Cl)Cl”, `COc1cc(C2CC(=O)Oc3c2c2nc4ccc(C)cc4nc2c2ccccc32)cc(OC)c1OC` (stereo unspecified) displayed an absorption maximum of 412 nm.

In turn, `COc1ccc2c(c1)SC1=Nc3sc4cc(OC)ccc4[n+]3CN12` had an absorption maximum (in CO) of 405 nm.

With `CCC1=C(C)C(=O)n2c1cc1c(C)cc(C)n1c2=O`, the absorption maximum is, setting by setting: (in CC#N) 409 nm; (in CC(C)=O) 412 nm; (in CO) 420 nm; (in CS(C)=O) 420 nm; (in ClC(Cl)Cl) 420 nm; (in c1ccccc1) 423 nm.

With `N#Cc1nn(-c2ccc(F)cc2)nc1N1CCCC1`, the absorption maximum (in CC#N) came out at 340 nm.

Take `c1ccc2nc3cccc(-c4ccc(-n5c6ccccc6c6ccccc65)cc4)c3cc2c1`: the absorption maximum is, setting by setting: (in C1CCOC1) 359 nm; (in CC#N) 358 nm; (in CC(C)=O) 358 nm; (in CC(C)OC(C)C) 359 nm; (in CCCCCC) 359 nm; (in CCCCOCCCC) 359 nm. The absorption maximum came out at 359 nm (in CCOC(C)=O) and 358 nm (in CCOCC).

With `Cc1sc(Cl)cc1-c1nc(-c2ccc(Cl)cc2)[nH]c1-c1cc(Cl)sc1C`, the absorption maximum (in CC#N) worked out at 309 nm.

For `CC1=C(c2ccc(N(C)C)cc2)C(C)=[N+]2C1=C(c1c(-c3ccccn3)nc3ccccn13)c1c(C)cc(C)n1[B-]2(F)F`, where the note is “in ClCCl”, the absorption maximum stood at 538 nm.

`COC(=O)[C@@H]1C(=O)Oc2ccccc2[C@H]1c1c[nH]c2ccccc12` displayed an absorption maximum (in CS(C)=O) of 284 nm.

In turn, `Cc1ccc2nc3cc4c(cc3c(-c3ccccc3)c2c1)[Si](C)(C)O[Si]4(C)C` registered an absorption maximum (in ClCCl) of 370 nm.

As to `CC(C)[Si](C#Cc1cc2c(=S)c3cc(C#C[Si](C(C)C)(C(C)C)C(C)C)cc4c(=S)c5cc(C#C[Si](C(C)C)(C(C)C)C(C)C)cc6c(=S)c(c1)c2n(c34)c65)(C(C)C)C(C)C`, for the setting “in ClCCl”, the absorption maximum worked out at 577 nm.

As for `CCCCCCCc1ccc(C2=[N+]3C(=C4c5cc(OCC(CC)CC)c(-c6ccc(CCCCCCC)o6)n5[B-](F)(F)[n+]5c4n(c4cc(C(C)(C)C)ccc45)[B-]3(F)F)C=C2OCC(CC)CC)o1`, the absorption maximum runs as follows: (in C1CCOC1) 816 nm; (in ClCCl) 826 nm.

In the case of `CCCCCC(=O)c1ccc2c3c(sc2c1)-c1ccccc1P3(=O)c1ccccc1` (stereo unspecified), for the setting “in ClCCl”, the absorption maximum was 359 nm and 375 nm.

For `CCOC(=O)c1ccc(C2CC(c3cccc4ccccc34)=NN2c2ccc(C)cc2)cc1` (stereo unspecified), for the setting “in ClCCl”, the absorption maximum came to 385 nm.

Where the note is “in ClCCl”, `Cc1cc2cc(C)c3c4ccccc4[nH]c3c2o1` displayed an absorption maximum of 302 nm.

Consider `F[B-]1(F)OC(c2ccc(N3CCCC3)cc2)=Cc2cccc[n+]21`, for which, for the setting “in ClC(Cl)Cl”, the absorption maximum is reported as 438 nm.

For the molecule `Cc1cc(C)c2c(c1)nc1c(=O)n(C)c(=O)nc-1n2C`, where the note is “in CC#N”, the absorption maximum came to 448 nm.

`CC(=O)c1cc2c(cc1F)NC(C)(C)CC2=O` had an absorption maximum (in CC#N) of 352 nm.

Turning to `COc1ccc2c(c1)c(=O)c1ccccc1n2CCCCCC(=O)O`, where the note is “in O”, the absorption maximum is 422 nm.

On to `COc1ccc(C2=Cc3ccccc3P2(=O)c2ccccc2)cc1` (stereo unspecified), for which the absorption maximum by setting is: (in C1CCOC1) 362 nm; (in ClCCl) 365 nm.

As for `COc1cc2cc(OC)c(C#Cc3ccc([N+](=O)[O-])cc3)cc2cc1C#Cc1ccc([N+](=O)[O-])cc1`, the absorption maximum is, setting by setting: (in C1CCOC1) 361 nm; (in ClC(Cl)Cl) 362 nm; (in ClCCl) 360 nm.

Consider `COc1ccc(/C=C/c2nc3ccccc3s2)cc1`, for which the absorption maximum reads like this: (in C1CCCCC1) 350 nm; (in CO) 350 nm.

As for `CC1(C)c2ccccc2-c2sc3ccccc3c21`, the absorption maximum (in ClCCl) was 330 nm.

Consider `CN(C)c1ccc(/C=C/c2ccnc(/C=C/c3ccc(N(C)C)cc3)n2)cc1`, for which the absorption maximum (in ClCCl) stood at 385 nm.

Molecule `COc1ccc2cc(/C=C/c3ccccc3)c(=O)oc2c1` came in with an absorption maximum (in CC#N) of 366 nm.

In the case of `CCc1ccc(-n2c3ccccc3c3cc4c(cc32)c2ccccc2n4-c2ccc(CC)cc2)cc1`, the absorption maximum (in ClC(Cl)Cl) is given as 409 nm.

For the molecule `Cc1nc(-c2ccccc2)c2ccccn12`, the absorption maximum (in C1CCCCC1) came out at 374 nm; the absorption maximum (in CC#N) came out at 364 nm; the absorption maximum (in CO) was determined as 354 nm; the absorption maximum (in ClCCl) was 367 nm; the absorption maximum (in O) is given as 338 nm.

Turning to `CCC1(CC)c2cc(B(c3c(C)cc(C)cc3C)c3c(C)cc(C)cc3C)ccc2-c2ccc(N(c3ccccc3)c3ccc4c(c3)C(CC)(CC)c3cc(B(c5c(C)cc(C)cc5C)c5c(C)cc(C)cc5C)ccc3-4)cc21`, the absorption maximum is 422 nm (in C1CCOC1); 417 nm (in CC#N); 418 nm (in CC(C)=O); 422 nm (in CCCCCC); 422 nm (in CN(C)C=O); 424 nm (in Cc1ccccc1). Moreover, the absorption maximum (in ClC(Cl)Cl) was found to be 422 nm.

Regarding `Cc1ccc2sc3cc(CCC(=O)O)ccc3c(=O)c2c1`, the absorption maximum by setting is: (in CC#N) 401 nm; (in CO) 402 nm.

The molecule `CCOC(=O)c1cc(C(=O)O)nc2cc(OC)ccc12` returned an absorption maximum (in CCO) of 349 nm.

For the setting “in Cc1ccccc1”, `CCOC(=O)c1cc2ccc3ccccc3c2c(C(=O)OCC)c1N` returned an absorption maximum of 427 nm.

`COc1cc(OC)cc(C2=C3C(C)=C(I)C(/C=C/c4ccsc4)=[N+]3[B-](F)(F)n3c(/C=C/c4ccsc4)c(I)c(C)c32)c1`: the absorption maximum was found to be 670 nm (in C1CCOC1), 675 nm (in CS(C)=O) and 670 nm (in ClCCl).

The molecule `CCOc1cccc(-c2nc3c(c4c2-c2ccccc2CC4)-c2ccccc2CC3)c1O` showed an absorption maximum (in ClCCl) of 335 nm.

`COC(=O)c1cc2c(cc3ccc4cccc5ccc2c3c45)[nH]1` gave an absorption maximum (in C1CCOC1) of 400 nm.

`Cc1ccccc1/C(C#N)=C/c1ccc(N(C)C)cc1`: the absorption maximum runs as follows: (in C1CCOC1) 376 nm; (in C1COCCO1) 376 nm; (in CC#N) 377 nm; (in CCCCCC) 364 nm; (in CCCCCCC) 376 nm; (in CCCCCO) 376 nm. The absorption maximum by setting is: (in CCCCO) 376 nm; (in CCCO) 374 nm; (in CCO) 376 nm; (in CCOC(C)=O) 373 nm; (in CN(C)C=O) 382 nm; (in CO) 374 nm. Besides, the absorption maximum is listed as 385 nm (in CS(C)=O), 366 nm (in Cc1ccccc1) and 378 nm (in ClC(Cl)Cl).

For the setting “in CC1CCCCC1”, `c12c3c4c5c1c1c6c7c2c2c8c3c3c9c4c4c%10c5c5c1c1c6c6c%11c%12c%13c%14c%15c%16c%17c%14c%14c%18c%13c%11c1c1c5c%10c5c(c%14c%10c%17c%11c%13c%16c%14c%16c%15c%12c%12c%16c(c2c7c%126)c2c8c3c(c%13c%142)c2c9c4c5c%10c%112)c%181` gave an absorption maximum of 470 nm.

`Oc1ccccc1-c1nc2c3ccccc3c3ccccc3c2n1-c1ccccc1`: the absorption maximum (in Cc1ccccc1) is on record as 335 nm.

Turning to `COc1cc2sc3nc(-c4ccccc4)sc3c2cc1OC`, the absorption maximum (in CS(C)=O) is on record as 360 nm.

With `CCN1C(=CC2=C([O-])C(=Cc3sc4ccccc4[n+]3CC)C2=O)Sc2ccccc21`, the absorption maximum is, setting by setting: (in CO) 649 nm; (in ClC(Cl)Cl) 669 nm; (in ClCCl) 670 nm.

Molecule `CCOC(=O)/C(C#N)=C/c1cc2c3ccccc3n(C)c2cc1OC` had an absorption maximum (in C1CCOC1) of 407 nm; an absorption maximum (in CC#N) of 410 nm; an absorption maximum (in CCOC(C)=O) of 406 nm; an absorption maximum (in CN(C)C=O) of 417 nm; an absorption maximum (in CO) of 415 nm; an absorption maximum (in CS(C)=O) of 419 nm. For the same molecule, the absorption maximum reads like this: (in Cc1ccccc1) 407 nm; (in ClC(Cl)Cl) 415 nm; (in ClCCl) 412 nm.

Consider `CC(C)(C)c1ccc(C(C)(C)C)c(N2C(=O)c3cccc4c(-c5ccc(-c6ccc([N+](=O)[O-])cc6)s5)ccc(c34)C2=O)c1`, for which the absorption maximum is 393 nm (in CO), 400 nm (in CS(C)=O) and 392 nm (in Cc1ccccc1).

The molecule `CCCC1(CCC)c2cc(-c3ccc(OC)cc3)ccc2-c2ccc(-c3ccc4c(c3)C(CCC)(CCC)c3cc(-c5ccc(OC)cc5)ccc3-4)cc21` came in with an absorption maximum (in C1CCCCC1) of 350 nm.

With `COc1ccc(C2=Cc3cc4ccccc4cc3P2(=O)c2ccccc2)cc1` (stereo unspecified), where the note is “in ClCCl”, the absorption maximum is given as 395 nm.

Take `COc1ccc2c(c1)CCC1=C(c3ccccc3)C3=Nc4c(-c5ccccc5)c5c(n4[B-](F)(F)[N+]3=C12)-c1ccc(OC)cc1CC5`: the absorption maximum (in ClC(Cl)Cl) turned out to be 740 nm.

As to `c1ccc(/C(=C(\c2ccccc2)c2ccccc2-c2ccc(-c3ccccc3)cc2)c2ccccc2-c2ccc(-c3ccccc3)cc2)cc1`, the absorption maximum (in C1CCOC1) came out at 280 nm.

Molecule `Cc1ccc(-c2cc(-c3ccccc3)c(C#N)c(=S)[nH]2)cc1` gave an absorption maximum (in C1CCCCC1) of 488 nm; an absorption maximum (in C1COCCO1) of 442 nm; an absorption maximum (in CC#N) of 430 nm; an absorption maximum (in CCOCC) of 440 nm; an absorption maximum (in CN(C)C=O) of 438 nm; an absorption maximum (in ClC(Cl)(Cl)Cl) of 446 nm.

Under “in ClC(Cl)Cl”, `CCCCc1c2c(nc3ccccc13)-c1cc3c(cc1CC2)-c1nc2ccccc2c(CCCC)c1CC3` yielded an absorption maximum of 372 nm.

Where the note is “in C1CCOC1”, `C1=Cc2ccccc2C(=Cc2ccc(C=C3c4ccccc4-c4ccccc43)cc2)c2ccccc21` showed an absorption maximum of 360 nm.
